Test system: ncRNAs (SEQ ID NO 28-89)
Assay: ncRNA arrays of melanocytes, keratinocytes, normal skin, melanoma cell lines and patient samples
Parameters: species or system human
Settings: for ncRNA array expression, patient 2: melanoma patient 2 sample compared to normal skin; for ncRNA array expression, patient 3: melanoma patient 3 sample compared to normal skin; for ncRNA array expression, patient 4: melanoma patient 4 sample compared to normal skin; for ncRNA array expression, patient 5: melanoma patient 5 sample compared to normal skin; for ncRNA array expression, patient 6: melanoma patient 6 sample compared to normal skin; for ncRNA array expression, patient 7: melanoma patient 7 sample compared to normal skin; for ncRNA array expression, patient 8: melanoma patient 8 sample compared to normal skin; for ncRNA array expression, patient 9: melanoma patient 9 sample compared to normal skin; for ncRNA array expression, patient 10: melanoma patient 10 sample compared to normal skin; for ncRNA array expression, patient 19: melanoma patient 19 sample compared to normal skin; for ncRNA array expression, patient 20: melanoma patient 20 sample compared to normal skin; for ncRNA array expression, patient 21: melanoma patient 21 sample compared to normal skin; for ncRNA array expression, patient 22: melanoma patient 22 sample compared to normal skin; for ncRNA array expression, patient 23: melanoma patient 23 sample compared to normal skin; for ncRNA array expression, patient 24: melanoma patient 24 sample compared to normal skin; for ncRNA array expression, patient 25: melanoma patient 25 sample compared to normal skin; for ncRNA array expression, patient 26: melanoma patient 26 sample compared to normal skin; for ncRNA array expression, patient 27: melanoma patient 27 sample compared to normal skin; for ncRNA array expression, patient 28: melanoma patient 28 sample compared to normal skin; for ncRNA array expression, patient 29: melanoma patient 29 sample compared to normal skin; for ncRNA array expression, patient 30: melanoma patient 30 sample compared to normal skin
Summary of the method: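 Differential ncRNA expression was defined against melanocytes or normal skin after subtracting keratinocyte-specific signals, with confirmation by qRT-PCR and Northern blot. Samples were melanoma cell lines, patient tumours, melanocytes, keratinocytes and normal skin, hybridised to a >10,000-probe (>200 nt) ncRNA array that also carries RefSeq mRNA probes.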

Row | Substance | ncRNA array expression, patient 2 | ncRNA array expression, patient 3 | ncRNA array expression, patient 4 | ncRNA array expression, patient 5 | ncRNA array expression, patient 6 | ncRNA array expression, patient 7 | ncRNA array expression, patient 8 | ncRNA array expression, patient 9 | ncRNA array expression, patient 10 | ncRNA array expression, patient 19 | ncRNA array expression, patient 20 | ncRNA array expression, patient 21 | ncRNA array expression, patient 22 | ncRNA array expression, patient 23 | ncRNA array expression, patient 24 | ncRNA array expression, patient 25 | ncRNA array expression, patient 26 | ncRNA array expression, patient 27 | ncRNA array expression, patient 28 | ncRNA array expression, patient 29 | other results
1 | SEQ ID NO 51 (ATGTATTTTAGGTAATAAGATTTTTATCAATTGTGTCTTTTTCTTTCTTTGCTTTCTATA; listed as DNA, chemistry not given here; listed as Homo sapiens) | 0.8922 | 2.683 | 2.264 | 1.042 | 1.115 | 1.14 | 2.048 | 0.7789 | 0.8572 | 0.7228 | 1.113 | 1.298 | 0.5543 | 0.1918 | 1.761 | 2.552 | 1.145 | 1.166 | 0.879 | 0.7193 | ncRNA array expression, patient 30: −0.4325
2 | SEQ ID NO 52 (TTTTCTTAGTCTTTTTACTTTTTCCATTATATTCTTTGATATATTTGAGAAAATGGCTTG; listed as DNA, chemistry not given here; listed as Homo sapiens) | 2.853 | 1.986 | 3.663 | 1.552 | 0.7809 | 0.9779 | 2.426 | 0.8678 | 0.7332 | 0.9835 | −0.5729 | 0.7286 | −0.2277 | −0.706 | −0.4016 | 3.265 | 3.428 | 0.4479 | 2.064 | 1.478 | ncRNA array expression, patient 30: −0.5811
3 | SEQ ID NO 53 (ATATATTTAGATAGTACTATGTTTCGTTTTCTTCCGATTTCAGGGATCCTTTTGTCTTAC; listed as DNA, chemistry not given here; listed as Homo sapiens) | −2.867 | −2.306 | −2.08 | −2.02 | −1.882 | −2.068 | −1.878 | −2.195 | −3.16 | −2.319 | −1.903 | −2.124 | −2.7031 | −3.175 | −1.827 | −2.864 | −3.105 | −2.542 | −1.905 | −2.948 | ncRNA array expression, patient 30: −3.05
4 | SEQ ID NO 54 (TTTTTTTTCTTGTCCTATTACAACATTTTATAACCTTATGAATCAATGGATACTTTTATT; listed as DNA, chemistry not given here; listed as Homo sapiens) | 0.357 | 2.627 | 3.179 | 0.2547 | 0.568 | 1.3 | 1.144 | −0.1401 | 0.4363 | 3.034 | 1.876 | 1.299 | −0.2466 | 0.7631 | 2.124 | 3.287 | 2.689 | 4.17 | 1.501 | −0.1851 | ncRNA array expression, patient 30: −0.1125
5 | SEQ ID NO 55 (CCTCTCCCCTTCTTGCAAAAAATATTCTATATTCAAGTTTAGGAGAAAACAGAATACTTG; listed as DNA, chemistry not given here; listed as Homo sapiens) | −1.54 | −1.638 | −1.747 | −1.565 | −1.135 | −1.9789 | −1.065 | −2.029 | −1.191 | −1.029 | −1.812 | −2.321 | −1.439 | −1.275 | −1.478 | −2.11 | −2.186 | −2.019 | −2.043 | −2.155 | ncRNA array expression, patient 30: −0.5021
6 | SEQ ID NO 56 (AAAAAATGAGGCAATCTCATCCCGAAACTATTTAAAACTACTCTCCTCTCTCTTGATAAA; listed as DNA, chemistry not given here; listed as Homo sapiens) | −2.014 | −1.535 | −1.64 | −1.4872 | −1.129 | −1.282 | −1.314 | −1.818 | −2.922 | −1.228 | −1.698 | −1.986 | −1.277 | −1.277 | −1.273 | −2.407 | −2.501 | −1.97 | −1.952 | −1.912 | ncRNA array expression, patient 30: −0.5599
7 | SEQ ID NO 57 (TTGTTGTTTTGGGAGATACCCTGTTTAGCCTGAAAGGATTGAGATACTGTAATTGCTATG; listed as DNA, chemistry not given here; listed as Homo sapiens) | 1.808 | 2.081 | 1.613 | 2.211 | 1.68 | 0.6099 | 1.985 | 0.645 | 0.5023 | 0.2628 | 0.1922 | 0.9386 | 1.473 | 1.122 | 0.5436 | 1.559 | 1.989 | 1.446 | 1.064 | 0.4459 | ncRNA array expression, patient 30: −0.5305
